# Measurements from patent publication US7022484B2, “Methods for treating neuropathological states and neurogenic inflammatory states and methods for identifying compounds useful therein” (Board of Regents, The University of Texas System, priority 2000, dated 2006).
# Entries after “also recorded” stand apart in the source; their conditions may differ.
# Tested on: NMDA receptor subunit NR1
# Assay: Immunocytochemical localization of NMDA receptor subunit NR1 in spinal cord of arthritic rats
# Assay type: in vivo, rat
# Conditions: Genistein 1 mM spinal pre-treatment
# Description: Cycloheximide (100 milligrams per kilogram (mg/kg) intraperitoneal (i.p.) was used in some studies to determine if the alterations observed for the NMDA NR1 receptor subunit could be attributed to newly synthesized NR1 protein.
# Twenty-four rats in 3 separate groups were used for immunocytochemical studies. One group of rat (n=8) was a naive control. The other 2 groups (n=16) of rats received surgical placement of the microdialysis fiber placement. On the day after microdialysis fiber placement, the animals were treated spinally with either Genistein (1 mM) or vehicle (50% DMSO in aCSF) for 1.5 hours (n=8 for each group). Then the left knee joint of all sixteen rats was injected with 0.1 ml of kaolin and carrageenan.
# Animals were anesthetized and transcardially perfused with a brief warm saline rinse followed by fixative solution (4% paraformaldehyde in 0.1 M phosphate buffer, pH 7.4). The tissues were soaked overnight in 30% buffered sucrose and cut at 30 microns on a sliding microtome. For light microscopy, the tissues from animals (n=8) were permeabilized with a 50% buffered ethanol treatment. Tissue sections were then stained immunocytochemically for glutamate receptor subunit NR1 and phospho-NR1. Primary antibodies to be used for staining include anti-NMDA NR1 NMDA receptor (0.5–1 milligrams per milliliter (mg/ml)) purchased from Chemlcon Inc. (Pittsburgh, Pa.). Other neurotransmitter and receptor primary antibodies against NMDA NR2C, mGluR1, and mGluR5 were used as stain specificity controls. The primary antibodies were diluted in phosphate buffered saline (PBS, pH 7.6) with 0.1% BSA for overnight incubation on the spinal cord tissues. After washing in PBS, the tissue sections were incubated in the appropriate secondary antibody, either anti-mouse or anti-rabbit IgG (1:100, 30 minutes) and in avidin-biotin complex (ABC, 1:100, Vector Laboratories, Burlingame, Calif.). Sections were reacted with diaminobenzidine (DAB) solution (1.5 mg/ml) as the chromogen and peroxide (0.5 mg/ml) to produce a dense reaction product. To further intensify the reaction product particularly for visualization of nuclear rings, some tissues were reacted with colloidal gold conjugated IgG and reacted with a silver chloride solution to produce an intense black reaction product (Takizawa et al., J. Histochemistry & Cytochemistry, 42, 1615–1623 (1994)).
# Immunocytochemical controls included sections processed in the absence of the primary or secondary antibody or ABC reagents. The specificity of the transmitter antibodies was confirmed by appearance of a single band by Western blot. In addition to use of the C-terminus NR1 antibody from ChemIcon, an antibody directed to the N-terminus of the NR1 protein was used as control (1 mg/ml; BD PharMingen, San Diego, Calif.). […]
smiles,measurement,setting,value
"O=c1c(-c2ccc(O)cc2)coc2cc(O)cc(O)c12 [Genistein, 5,7-Dihydroxy-3-(4-hydroxyphenyl)-4H-1-benzopyran-4-one; 4′,5,7-trihydroxy-isoflavone]",staining for NR1 in spinal cord,"4 hours, cycloheximide 100 mg/kg i.p.",about half that observed in arthritic rats and was not significantly increased above levels seen in normal rats; also recorded: greatly reduced expression increases for NR1 that were not significantly different from baseline
same,nuclear localization of NR1,,greatly reduced; also recorded: inhibited the shift in the pattern of NMDA NR1 protein staining
